Here are results for 5 compounds from ChEMBL document CHEMBL1151405, “Biological and phytochemical investigation of Clausena excavata” (J Nat Prod, 1982).

Activity calls are given as the source filed them. The calls are words filed in the database; no cut-off is given here.

Holding throughout (assay type): functional, organism-based
Experiment [1] has as its system Saccharomyces pastorianus. Briefly: Antimicrobial activity against Saccharomyces carlsbergensis at 500 ppm after 24 hrs.
Experiment [2] deals with Escherichia coli. Briefly: Antimicrobial activity against Escherichia coli 10536 at 500 ppm after 24 hrs.
In experiment [3] the test system is Micrococcus luteus. The experiment is described as follows: Antimicrobial activity against Sarcina lutea 9341 at 500 ppm after 24 hrs.
The subject of experiment [4] is Salmonella enterica subsp. enterica serovar Gallinarum. Briefly: Antimicrobial activity against Salmonella gallinarum X142 at 500 ppm after 24 hrs.
Experiment [5] deals with Streptococcus pneumoniae. The experiment is described as follows: Antimicrobial activity against Pneumococcus clinical isolates at 500 ppm after 24 hrs.
For experiment [6], the system named is Staphylococcus aureus. The experiment is described as follows: Antimicrobial activity against penicillin-resistant Staphylococcus aureus at 500 ppm after 24 hrs.
In experiment [7] the test system is Aspergillus niger. Briefly: Antimicrobial activity against Aspergillus niger at 500 ppm after 24 hrs.
Experiment [8] deals with Bacillus subtilis. Briefly: Antimicrobial activity against Bacillus subtilis 6633 at 500 ppm after 24 hrs.
Experiment [9] concerns Pseudomonas aeruginosa. The experiment is described as follows: Antimicrobial activity against Pseudomonas aeruginosa NCTC 10490 at 500 ppm after 24 hrs.
Experiment [10] relates to Staphylococcus aureus. The experiment is described as follows: Antimicrobial activity against Staphylococcus aureus 6538-P at 500 ppm after 24 hrs.
Experiment [11] concerns Bordetella bronchiseptica. Briefly: Antimicrobial activity against Bordetella bronchiseptica 4614 at 500 ppm after 24 hrs.
Experiment [12] concerns Escherichia coli. Briefly: Antimicrobial activity against Escherichia coli 10536 at 50 ppm after 24 hrs.
Experiment [13] relates to Escherichia coli. The experiment is described as follows: Antimicrobial activity against Escherichia coli 10536 at 10 ppm after 24 hrs.
Experiment [14] has as its system Saccharomyces pastorianus. The experiment is described as follows: Antimicrobial activity against Saccharomyces carlsbergensis at 10 ppm after 24 hrs.
For experiment [15], the system named is Salmonella enterica subsp. enterica serovar Gallinarum. The experiment is described as follows: Antimicrobial activity against Salmonella gallinarum X142 at 100 ppm after 24 hrs.
The test system of experiment [16] is Bordetella bronchiseptica. The experiment is described as follows: Antimicrobial activity against Bordetella bronchiseptica 4614 at 100 ppm after 48 hrs.
The test system of experiment [17] is Bordetella bronchiseptica. The experiment is described as follows: Antimicrobial activity against Bordetella bronchiseptica 4614 at 5 ppm after 24 hrs.
Experiment [18] has as its system Aspergillus niger. Briefly: Antimicrobial activity against Aspergillus niger at 100 ppm after 24 hrs.
The test system of experiment [19] is Salmonella enterica subsp. enterica serovar Gallinarum. Briefly: Antimicrobial activity against Salmonella gallinarum X142 at 50 ppm after 24 hrs.
Experiment [20] concerns Bordetella bronchiseptica. Briefly: Antimicrobial activity against Bordetella bronchiseptica 4614 at 50 ppm after 48 hrs.
Experiment [21] has as its system Micrococcus luteus. Briefly: Antimicrobial activity against Sarcina lutea 9341 at 5 ppm after 24 hrs.
In experiment [22] the test system is Staphylococcus aureus. The experiment is described as follows: Antimicrobial activity against penicilln-resistant Staphylococcus aureus at 10 ppm after 24 hrs.
The test system of experiment [23] is Streptococcus pneumoniae. The experiment is described as follows: Antimicrobial activity against Pneumococcus clinical isolates at 50 ppm after 48 hrs.
In experiment [24] the test system is Aspergillus niger. The experiment is described as follows: Antimicrobial activity against Aspergillus niger at 10 ppm after 24 hrs.
The subject of experiment [25] is Salmonella enterica subsp. enterica serovar Gallinarum. The experiment is described as follows: Antimicrobial activity against Salmonella gallinarum X142 at 10 ppm after 24 hrs.
Experiment [26] relates to Bacillus subtilis. Briefly: Antimicrobial activity against Bacillus subtilis 6633 at 50 ppm after 48 hrs.
For experiment [27], the system named is Saccharomyces pastorianus. The experiment is described as follows: Antimicrobial activity against Saccharomyces carlsbergensis at 5 ppm after 24 hrs.
The test system of experiment [28] is Saccharomyces pastorianus. The experiment is described as follows: Antimicrobial activity against Saccharomyces carlsbergensis at 50 ppm after 24 hrs.
The subject of experiment [29] is Escherichia coli. The experiment is described as follows: Antimicrobial activity against Escherichia coli 10536 at 200 ppm after 24 hrs.
For experiment [30], the system named is Pseudomonas aeruginosa. The experiment is described as follows: Antimicrobial activity against Pseudomonas aeruginosa NCTC 10490 at 100 ppm after 48 hrs.
Experiment [31] has as its system Staphylococcus aureus. The experiment is described as follows: Antimicrobial activity against penicilln-resistant Staphylococcus aureus at 100 ppm after 24 hrs.
For experiment [32], the system named is Micrococcus luteus. The experiment is described as follows: Antimicrobial activity against Sarcina lutea 9341 at 200 ppm after 48 hrs.
The subject of experiment [33] is Pseudomonas aeruginosa. The experiment is described as follows: Antimicrobial activity against Pseudomonas aeruginosa NCTC 10490 at 10 ppm after 48 hrs.
Experiment [34] concerns Streptococcus pneumoniae. Briefly: Antimicrobial activity against Pneumococcus clinical isolates at 200 ppm after 48 hrs.
In experiment [35] the test system is Staphylococcus aureus. Briefly: Antimicrobial activity against Staphylococcus aureus 6538-P at 10 ppm after 48 hrs.
The subject of experiment [36] is Staphylococcus aureus. The experiment is described as follows: Antimicrobial activity against Staphylococcus aureus 6538-P at 100 ppm after 48 hrs.
The subject of experiment [37] is Staphylococcus aureus. Briefly: Antimicrobial activity against Staphylococcus aureus 6538-P at 50 ppm after 48 hrs.
In experiment [38] the test system is Aspergillus niger. Briefly: Antimicrobial activity against Aspergillus niger at 5 ppm after 24 hrs.
The subject of experiment [39] is Bacillus subtilis. The experiment is described as follows: Antimicrobial activity against Bacillus subtilis 6633 at 10 ppm after 48 hrs.
Experiment [40] has as its system Staphylococcus aureus. The experiment is described as follows: Antimicrobial activity against Staphylococcus aureus 6538-P at 200 ppm after 48 hrs.
The test system of experiment [41] is Pseudomonas aeruginosa. Briefly: Antimicrobial activity against Pseudomonas aeruginosa NCTC 10490 at 50 ppm after 48 hrs.
The subject of experiment [42] is Pseudomonas aeruginosa. Briefly: Antimicrobial activity against Pseudomonas aeruginosa NCTC 10490 at 200 ppm after 48 hrs.
Experiment [43] has as its system Salmonella enterica subsp. enterica serovar Gallinarum. The experiment is described as follows: Antimicrobial activity against Salmonella gallinarum X142 at 5 ppm after 24 hrs.
In experiment [44] the test system is Bacillus subtilis. Briefly: Antimicrobial activity against Bacillus subtilis 6633 at 5 ppm after 24 hrs.
The test system of experiment [45] is Bordetella bronchiseptica. The experiment is described as follows: Antimicrobial activity against Bordetella bronchiseptica 4614 at 10 ppm after 48 hrs.
Experiment [46] has as its system Saccharomyces pastorianus. The experiment is described as follows: Antimicrobial activity against Saccharomyces carlsbergensis at 200 ppm after 24 hrs.
Experiment [47] relates to Bacillus subtilis. The experiment is described as follows: Antimicrobial activity against Bacillus subtilis 6633 at 100 ppm after 48 hrs.
For experiment [48], the system named is Escherichia coli. Briefly: Antimicrobial activity against Escherichia coli 10536 at 5 ppm after 24 hrs.
For experiment [49], the system named is Staphylococcus aureus. Briefly: Antimicrobial activity against penicillin-resistant Staphylococcus aureus at 50 ppm after 24 hrs.
Experiment [50] concerns Salmonella enterica subsp. enterica serovar Gallinarum. The experiment is described as follows: Antimicrobial activity against Salmonella gallinarum X142 at 200 ppm after 24 hrs.
The test system of experiment [51] is Aspergillus niger. The experiment is described as follows: Antimicrobial activity against Aspergillus niger at 50 ppm after 24 hrs.
Experiment [52] has as its system Staphylococcus aureus. Briefly: Antimicrobial activity against penicillin-resistant Staphylococcus aureus at 5 ppm after 24 hrs.
In experiment [53] the test system is Saccharomyces pastorianus. Briefly: Antimicrobial activity against Saccharomyces carlsbergensis at 100 ppm after 24 hrs.
Experiment [54] has as its system Escherichia coli. Briefly: Antimicrobial activity against Escherichia coli 10536 at 100 ppm after 24 hrs.
Experiment [55] concerns Staphylococcus aureus. The experiment is described as follows: Antimicrobial activity against penicillin-resistant Staphylococcus aureus at 200 ppm after 24 hrs.
In experiment [56] the test system is Aspergillus niger. Briefly: Antimicrobial activity against Aspergillus niger at 200 ppm after 24 hrs.
Experiment [57] deals with Streptococcus pneumoniae. Briefly: Antimicrobial activity against Pneumococcus clinical isolates at 100 ppm after 48 hrs.
For experiment [58], the system named is Bacillus subtilis. The experiment is described as follows: Antimicrobial activity against Bacillus subtilis 6633 at 200 ppm after 48 hrs.
Experiment [59] relates to Streptococcus pneumoniae. The experiment is described as follows: Antimicrobial activity against Pneumococcus clinical isolates at 10 ppm after 48 hrs.
Experiment [60] concerns Micrococcus luteus. Briefly: Antimicrobial activity against Sarcina lutea 9341 at 10 ppm after 24 hrs.
In experiment [61] the test system is Micrococcus luteus. The experiment is described as follows: Antimicrobial activity against Sarcina lutea 9341 at 50 ppm after 24 hrs.
Experiment [62] has as its system Bordetella bronchiseptica. Briefly: Antimicrobial activity against Bordetella bronchiseptica 4614 at 200 ppm after 48 hrs.

In the case of `C=CC(C)(C)c1c(O)c2c(c3ccc(=O)oc13)OC(C)(C)CC2=O`, the outcome (in experiment [1]; in the experiment on Escherichia coli [2]; in the experiment on Micrococcus luteus [3]; in [4]; in the experiment with Streptococcus pneumoniae [5]; in the experiment on Staphylococcus aureus [6]) was inactive. Besides, the outcome (in the experiment with Aspergillus niger [7]; with Bacillus subtilis [8]; in the experiment with Pseudomonas aeruginosa [9]; in the experiment with Staphylococcus aureus [10]; in experiment [11]) was inactive.

Regarding `COc1c2c(cc3oc(=O)ccc13)OC(C)(C)C=C2`, the result (in experiment [1]; with Escherichia coli [2]; in the experiment on Micrococcus luteus [3]; in [4]; in the experiment with Streptococcus pneumoniae [5]; with Staphylococcus aureus [6]) was inactive. Besides, the outcome (in the experiment on Aspergillus niger [7]; in the experiment with Bacillus subtilis [8]; in the experiment with Pseudomonas aeruginosa [9]; in the experiment with Staphylococcus aureus [10]; in [11]) was inactive.

Take `C=CC(C)(C)c1c2c(c(O)c3ccc(=O)oc13)C=CC(C)(C)O2`: the outcome (in experiment [1]; with Escherichia coli [12]; with Escherichia coli [13]; in [14]; in experiment [15]; in [17]) was inactive. The result (in the experiment on Aspergillus niger [18]; in experiment [19]; in the experiment with Micrococcus luteus [21]; in the experiment with Staphylococcus aureus [22]; in the experiment on Aspergillus niger [24]; in experiment [25]) was inactive. For the same compound, the result (in experiment [27]; in experiment [28]; in the experiment with Escherichia coli [29]; in the experiment with Staphylococcus aureus [31]; in the experiment on Aspergillus niger [38]; in [43]) was inactive. Also, the result (in the experiment with Bacillus subtilis [44]; in experiment [46]; with Escherichia coli [48]; in the experiment on Staphylococcus aureus [49]; in [50]; in the experiment on Aspergillus niger [51]) was inactive. Besides, the outcome (with Staphylococcus aureus [52]; in experiment [53]; in the experiment on Escherichia coli [54]; in the experiment with Staphylococcus aureus [55]; in the experiment on Aspergillus niger [56]; with Micrococcus luteus [60]) was inactive. For the same compound, the result in the experiment with Micrococcus luteus [61] was inactive. Further, the result (in [16]; in experiment [20]; in the experiment on Streptococcus pneumoniae [23]; with Bacillus subtilis [26]; in the experiment on Pseudomonas aeruginosa [30]; with Micrococcus luteus [32]) was Active. Moreover, the outcome in the experiment on Pseudomonas aeruginosa [33], in the experiment on Streptococcus pneumoniae [34], with Staphylococcus aureus [35], with Staphylococcus aureus [36], with Staphylococcus aureus [37] and with Bacillus subtilis [39] was Active. In addition, the outcome (in the experiment with Staphylococcus aureus [40]; in the experiment on Pseudomonas aeruginosa [41]; with Pseudomonas aeruginosa [42]; in experiment [45]; with Bacillus subtilis [47]; in the experiment on Streptococcus pneumoniae [57]) was Active. In addition, the outcome (with Bacillus subtilis [58]; in the experiment with Streptococcus pneumoniae [59]; in [62]) was Active.

Consider `C=CC(C)(C)c1c(O)c(/C=C/C(=O)O)c2c(c1O)C(=O)CC(C)(C)O2`, for which the outcome (in [1]; with Escherichia coli [2]; in the experiment with Micrococcus luteus [3]; in experiment [4]; in the experiment with Streptococcus pneumoniae [5]; with Staphylococcus aureus [6]) was inactive. The result (in the experiment on Aspergillus niger [7]; in the experiment on Bacillus subtilis [8]; with Pseudomonas aeruginosa [9]; in the experiment with Staphylococcus aureus [10]; in experiment [11]) was inactive.

On to `C=CC(C)(C)c1cc2c(O)c3c(c(C(C)(C)C=C)c2oc1=O)OC(C)(C)C=C3`, for which the result (in experiment [1]; with Escherichia coli [2]; in the experiment with Micrococcus luteus [3]; in [4]; in the experiment with Streptococcus pneumoniae [5]; in the experiment on Staphylococcus aureus [6]) was inactive. In addition, the result (in the experiment on Aspergillus niger [7]; in the experiment on Bacillus subtilis [8]; with Pseudomonas aeruginosa [9]; in the experiment with Staphylococcus aureus [10]; in experiment [11]) was inactive.
